Values quoted from earlier work in article PMC4287394 (Clinical cancer research : an official journal of the …, 2014).

Columns and labels:
[1] = system: purified recombinant human PI3K p110γ; details: read-out: IC50 p110γ; purified recombinant human PI3K isoforms; cited from earlier work
[2] = system: purified recombinant human PI3K p110β; details: read-out: IC50 p110β; purified recombinant human PI3K isoforms; cited from earlier work

CS(=O)(=O)N1CCN(Cc2cc3nc(-c4cccc5[nH]ncc45)nc(N4CCOCC4)c3s2)CC1 [pictilisib, 2-(1H-indazol-4-yl)-6-(4-methanesulfonyl-piperazin-1-ylmethyl)-4-morpholin-4-yl-t hieno[3,2-d]pyrimidine]
IC50 [1]: 75 nM
IC50 [2]: 33 nM
